In the supplement of paper PMC10307832:

Experiments:
Assay in all cases: relative viability (nuclei count vs DMSO), 5 days (fraction); higher = more cells survive
DM3189 + Bortezomib = compound: C1CN(CCN1)C2=CC=C(C=C2)C3=CN4C(=C(C=N4)C5=CC=NC6=CC=CC=C56)N=C3 [DM3189] + CC(C)C[C@H](NC(=O)[C@H](Cc1ccccc1)NC(=O)c1cnccn1)B(O)O [Bortezomib] (partner 0.002 µM)
Method in brief: (§1)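 Dosing by pin tool came one day after lung cancer cell lines were seeded in 1536-well plates, using either one drug or a fixed anchor-drug dose plus five library-drug doses (not always all listed) in √10 steps. After 5 days, nuclei were counted on 4× images. Relative viability is treated-well nuclei count divided by vehicle-well nuclei count, and values are medians of duplicate plates.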

DM3189 + Foretinib = compound: C1CN(CCN1)C2=CC=C(C=C2)C3=CN4C(=C(C=N4)C5=CC=NC6=CC=CC=C56)N=C3 [DM3189] + COc1cc2c(Oc3ccc(NC(=O)C4(C(=O)Nc5ccc(F)cc5)CC4)cc3F)ccnc2cc1OCCCN1CCOCC1 [Foretinib] (partner 0.25 µM)
Method in brief: as §1

DM3189 + Decitabine = compound: C1CN(CCN1)C2=CC=C(C=C2)C3=CN4C(=C(C=N4)C5=CC=NC6=CC=CC=C56)N=C3 [DM3189] + Nc1ncn([C@H]2C[C@H](O)[C@@H](CO)O2)c(=O)n1 [Decitabine] (partner 2 µM)
Method in brief: as §1

DM3189 + Palbociclib = compound: C1CN(CCN1)C2=CC=C(C=C2)C3=CN4C(=C(C=N4)C5=CC=NC6=CC=CC=C56)N=C3 [DM3189] + CC(=O)c1c(C)c2cnc(Nc3ccc(N4CCNCC4)cn3)nc2n(C2CCCC2)c1=O [Palbociclib] (partner 0.5 µM)
Method in brief: as §1

DM3189 + Pemetrexed = compound: C1CN(CCN1)C2=CC=C(C=C2)C3=CN4C(=C(C=N4)C5=CC=NC6=CC=CC=C56)N=C3 [DM3189] + Nc1nc2[nH]cc(CCc3ccc(C(=O)N[C@@H](CCC(=O)O)C(=O)O)cc3)c2c(=O)[nH]1 [Pemetrexed] (partner 0.2 µM)
Method in brief: as §1

Cell Line | relative viability (DM3189 + Bortezomib; first compound 0.08 µM) | relative viability (DM3189 + Bortezomib; first compound 0.253 µM) | relative viability (DM3189 + Bortezomib; first compound 0.8 µM) | relative viability (DM3189 + Bortezomib; first compound 2.53 µM) | relative viability (DM3189 + Foretinib; first compound 0.08 µM) | relative viability (DM3189 + Foretinib; first compound 0.253 µM) | relative viability (DM3189 + Foretinib; first compound 0.8 µM) | relative viability (DM3189 + Foretinib; first compound 2.53 µM) | relative viability (DM3189 + Decitabine; first compound 0.08 µM) | relative viability (DM3189 + Decitabine; first compound 0.253 µM) | relative viability (DM3189 + Decitabine; first compound 0.8 µM) | relative viability (DM3189 + Decitabine; first compound 2.53 µM) | relative viability (DM3189 + Palbociclib; first compound 0.08 µM) | relative viability (DM3189 + Palbociclib; first compound 0.253 µM) | relative viability (DM3189 + Palbociclib; first compound 0.8 µM) | relative viability (DM3189 + Palbociclib; first compound 2.53 µM) | relative viability (DM3189 + Pemetrexed; first compound 0.08 µM) | relative viability (DM3189 + Pemetrexed; first compound 0.253 µM) | relative viability (DM3189 + Pemetrexed; first compound 0.8 µM) | relative viability (DM3189 + Pemetrexed; first compound 2.53 µM)
HOP-62 | 1.18 | 0.927 | 0.393 | 0.58 | 1.05 | 1.07 | 1.04 | 1.16 | 0.214 | 0.203 | 0.193 | 0.21 | 0.53 | 0.453 | 0.46 | 0.402 | 0.32 | 0.296 | 0.295 | 0.346
LC-2-ad | 0.975 | 0.934 | 0.943 | 1.06 | 1.08 | 0.926 | 0.931 | 0.992 | 0.851 | 0.77 | 0.826 | 0.916 | 0.561 | 0.507 | 0.487 | 0.49 | 0.259 | 0.253 | 0.257 | 0.276
LCLC-97TM1 | 1.26 | 0.573 | 0.531 | 0.366 | 0.877 | 0.857 | 0.765 | 0.747 | 0.263 | 0.201 | 0.197 | 0.228 | 0.196 | 0.154 | 0.177 | 0.178 | 0.182 | 0.17 | 0.136 | 0.167
LCLC-103H | 1.14 | 0.939 | 0.955 | 1.07 | 0.847 | 0.761 | 0.718 | 0.702 | 0.765 | 0.746 | 0.691 | 0.721 | 0.536 | 0.434 | 0.45 | 0.455 | 0.514 | 0.407 | 0.431 | 0.469
LOU-NH91 | 0.487 | 0.529 | 0.463 | 0.443 | 1.08 | 0.942 | 0.891 | 0.96 | 0.854 | 0.799 | 0.739 | 0.863 | 0.514 | 0.53 | 0.501 | 0.562 | 0.375 | 0.407 | 0.331 | 0.368
LU99A | 1.23 | 1.01 |  | 1.04 | 0.82 | 0.731 |  | 0.661 | 1.09 | 0.837 |  | 0.777 | 0.482 | 0.372 |  | 0.365 | 0.185 | 0.233 |  | 0.161
LXF-289 | 1 | 0.929 | 0.988 | 1.11 | 0.982 | 0.963 | 0.987 | 1.02 | 0.391 | 0.389 | 0.438 | 0.421 | 0.597 | 0.606 | 0.565 | 0.562 | 0.932 | 0.986 | 0.897 | 0.917
NCI-H23 | 1.18 | 0.825 | 0.928 | 1.02 | 1.01 | 0.861 | 0.882 | 0.982 | 0.308 | 0.304 | 0.284 | 0.314 | 0.468 | 0.43 | 0.496 | 0.485 | 0.759 | 0.635 | 0.641 | 0.676
NCI-H322M | 1.25 | 1.38 | 1.19 | 1.23 | 0.942 | 0.944 | 0.886 | 0.774 | 0.628 | 0.683 | 0.767 | 0.696 | 0.501 | 0.489 | 0.516 | 0.43 | 0.64 | 0.582 | 0.557 | 0.501
NCI-H441 | 0.656 | 0.604 | 0.447 | 0.645 | 1.01 | 0.726 | 1.24 | 0.702 | 0.307 | 0.227 | 0.216 | 0.219 | 0.25 | 0.222 | 0.197 | 0.169 | 0.3 | 0.243 | 0.295 | 0.287
NCI-H460 | 1.19 | 1.07 | 1.06 | 0.255 | 0.951 | 1.03 | 0.995 | 1.34 | 0.449 | 0.468 | 0.438 | 0.555 | 0.305 | 0.187 | 0.158 | 0.16 | 0.0522 | 0.0522 | 0.0641 | 0.0646
NCI-H520 | 0.503 | 0.345 | 0.429 | 0.368 | 0.713 | 0.554 | 0.62 | 0.631 | 0.534 | 0.399 | 0.521 | 0.336 | 0.206 | 0.202 | 0.206 | 0.173 | 0.603 | 0.492 | 0.49 | 0.296
NCI-H647 | 1.08 | 0.871 | 0.667 | 0.35 | 1.06 | 1.13 | 1.08 | 1.01 | 0.365 | 0.43 | 0.418 | 0.403 | 0.4 | 0.378 | 0.273 | 0.217 | 0.185 | 0.178 | 0.173 | 0.146
NCI-H650 | 1 | 0.765 | 0.635 | 0.655 | 1.04 | 0.964 | 0.912 | 1.02 | 0.288 | 0.313 | 0.242 | 0.292 | 0.321 | 0.311 | 0.304 | 0.369 | 1.02 | 0.956 | 0.958 | 0.936
NCI-H661 | 0.931 | 0.997 | 1.06 | 1.14 | 1.14 | 0.954 | 1.02 | 1.19 | 0.673 | 0.519 | 0.576 | 0.673 | 0.411 | 0.394 | 0.396 | 0.381 | 1.03 | 0.861 | 0.955 | 0.884
NCI-H838 | 1 | 0.64 | 0.633 | 0.92 | 0.951 | 0.891 | 0.689 | 0.895 | 0.446 | 0.458 | 0.431 | 0.525 | 0.265 | 0.224 | 0.174 | 0.205 | 0.238 | 0.255 | 0.239 | 0.22
